Laboratory results reported in patent US10889555B2, “Sulfonamide compound or salt thereof” (Taiho Pharmaceutical Co., Ltd., priority 2016, dated 2021).

test system: HCC 1806 cells; experiment: Cell proliferation inhibitory effect on human breast cancer cell line (crystal violet, 72 hours); assay type: cell-based; settings: Homo sapiens, HCC1806, 72 h, read-out: Cell growth suppression IC50
Summary of the method: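 Cells were seeded at 2,000/well in RPMI-1640 with 10% FBS and grown 1 day, then exposed to compound for 72 h at 37° C, 5% CO2. After glutaraldehyde fixation and 0.05% crystal violet staining, extracted dye was read at 540 nm. IC50 (μM) came from growth inhibition relative to untreated and cell-free wells.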

| IC50 | Structure (SMILES) |
| --- | --- |
| 490 nM | Cc1ccc(F)c([C@@H](C)[C@H](NS(=O)(=O)c2ccc(F)c3c2OCCC3O)c2n[nH]c(=O)o2)c1C (stereo partly drawn) [Example 241, 5-fluoro-N-((1S,2R)-2-(6-fluoro-2,3-dimethylphenyl)-1-(5-oxo-4,5-dihydro-1,3,4-oxadiazol-2-yl)propyl)-4-hydroxychroman-8-sulfonamide] |
| 590 nM | Cc1ccc(F)c([C@@H](C)[C@H](NS(=O)(=O)c2ccc(Cl)c3c2OCCC3N)c2n[nH]c(=O)o2)c1C (stereo partly drawn) [Example 278, 4-amino-5-chloro-N-((1S,2R)-2-(6-fluoro-2,3-dimethylphenyl)-1-(5-oxo-4,5-dihydro-1,3,4-oxadiazol-2-yl)propyl)chroman-8-sulfonamide] |
| 750 nM | C[C@H](c1c(F)ccc2ccccc12)[C@H](NS(=O)(=O)c1ccc(Cl)c2c1OCCC2F)c1n[nH]c(=O)o1 (mixture of isomers) [Example 292, 5-chloro-4-fluoro-N-((1S,2R)-2-(2-fluoronaphthalen-1-yl)-1-(5-oxo-4,5-dihydro-1,3,4-oxadiazol-2-yl)propyl)chroman-8-sulfonamide] |
| 250 nM | COc1c(S(=O)(=O)N[C@H](c2n[nH]c(=O)o2)[C@H](C)c2c(F)ccc3ccccc23)ccc(Cl)c1C(C)O (stereo partly drawn) [Example 205, 4-chloro-N-((1S,2R)-2-(2-fluoronaphthalene-1-yl)-1-(5-oxo-4,5-dihydro-1,3,4-oxadiazol-2-yl)propyl)-3-(1-hydroxyethyl)-2-methoxybenzenesulfonamide] |
| 410 nM | Cc1c(Cl)ccc(F)c1[C@@H](C)[C@H](NS(=O)(=O)c1ccc(Cl)c2c1OCCC2(C)N)c1n[nH]c(=O)o1 (mixture of isomers) [Example 328, 4-amino-5-chloro-N-((1S,2R)-2-(3-chloro-6-fluoro-2-methylphenyl)-1-(5-oxo-4,5-dihydro-1,3,4-oxadiazol-2-yl)propyl)-4-methylchroman-8-sulfonamide] |
| 990 nM | COc1cc(Cl)ccc1S(=O)(=O)N[C@H](c1n[nH]c(=O)o1)[C@H](C)c1c(F)ccc(-c2cn[nH]c2)c1C [Example 303, 4-chloro-N-((1S,2R)-2-(6-fluoro-2-methyl-3-(1H-pyrazol-4-yl)phenyl)-1-(5-oxo-4,5-dihydro-1,3,4-oxadiazol-2-yl)propyl)-2-methoxybenzenesulfonamide] |
| 250 nM | Cc1c(Cl)ccc(F)c1[C@@H](C)[C@H](NS(=O)(=O)c1ncc(Br)cc1C(N)=O)c1n[nH]c(=O)o1 [Example 254, 5-bromo-2-(N-((1S,2R)-2-(3-chloro-6-fluoro-2-methylphenyl)-1-(5-oxo-4,5-dihydro-1,3,4-oxadiazol-2-yl)propyl)sulfamoyl)nicotinamide] |
| 930 nM | COc1cc(Cl)ccc1S(=O)(=O)N[C@H](c1n[nH]c(=O)o1)[C@H](C)c1c(F)ccc(-c2ccc(N3CCOCC3)nc2)c1C [Example 315, 4-chloro-N-((1S,2R)-2-(6-fluoro-2-methyl-3-(6-morpholinopyridin-3-yl)phenyl)-1-(5-oxo-4,5-dihydro-1,3,4-oxadiazol-2-yl)propyl)-2-methoxybenzenesulfonamide] |
| 720 nM | Cc1ccc(F)c([C@@H](C)[C@H](NS(=O)(=O)c2ccc(C(F)(F)F)c3c2OCCC3O)c2n[nH]c(=O)o2)c1C (single isomer, unassigned) [Example 244A] |
| 110 nM | Cc1ccc(F)c([C@@H](C)[C@H](NS(=O)(=O)c2ccc(Cl)c(C(C)(C)O)n2)c2n[nH]c(=O)o2)c1C [Example 193, 5-chloro-N-((1S,2R)-2-(6-fluoro-2,3-dimethylphenyl)-1-(5-oxo-4,5-dihydro-1,3,4-oxadiazol-2-yl)propyl)-6-(2-hydroxypropan-2-yl)pyridine-2-sulfonamide] |
| 310 nM | Cc1c(Cl)ccc(F)c1[C@@H](C)[C@H](NS(=O)(=O)c1ccc(F)c2c1OCCC2(C)O)c1n[nH]c(=O)o1 (single isomer, unassigned) [Example 229A] |
| 320 nM | Cc1ccc(F)c([C@@H](C)[C@H](NS(=O)(=O)c2cc(C(C)(C)O)c(F)cc2C(N)=O)c2n[nH]c(=O)o2)c1C [Example 196, 5-fluoro-2-(N-((1S,2R)-2-(6-fluoro-2,3-dimethylphenyl)-1-(5-oxo-4,5-dihydro-1,3,4-oxadiazol-2-yl)propyl)sulfamoyl)-4-(2-hydroxypropan-2-yl)benzamide] |

More lines, now with the values behind:

| Structure (SMILES) | IC50 |
| --- | --- |
| Cc1ccc(F)c([C@@H](C)[C@H](NS(=O)(=O)c2ccc(Cl)c3c2OCC(=O)N3C)c2n[nH]c(=O)o2)c1C [Example 93, 5-chloro-N-((1S,2R)-2-(6-fluoro-2,3-dimethylphenyl)-1-(5-oxo-4,5-dihydro-1,3,4-oxadiazol-2-yl)propyl)-4-methyl-3-oxo-3,4-dihydro-2H-benzo[b][1,4]oxazine-8-sulfonamide] | 280 nM |
| CCN1CCOc2c(S(=O)(=O)N[C@H](c3n[nH]c(=O)o3)[C@H](C)c3c(F)ccc(C)c3C)ccc(Cl)c21 [Example 94, 5-chloro-4-ethyl-N-((1S,2R)-2-(6-fluoro-2,3-dimethylphenyl)-1-(5-oxo-4,5-dihydro-1,3,4-oxadiazol-2-yl)propyl)-3,4-dihydro-2H-benzo [b][1,4]oxazine-8-sulfonamide] | 480 nM |
| C[C@H](c1c(F)ccc2ccccc12)[C@H](NS(=O)(=O)c1ccc(Br)cc1C(N)=O)c1n[nH]c(=O)o1 [Example 15, 5-bromo-2-(N-((1S,2R)-2-(2-fluoronaphthalen-1-yl)-1-(5-oxo-4,5-dihydro-1,3,4-oxadiazol-2-yl)propyl)sulfamoyl)benzamide] | 400 nM |
| Cc1ccc(F)c([C@@H](C)[C@H](NS(=O)(=O)c2ccc(F)c(C(C)(C)O)c2F)c2n[nH]c(=O)o2)c1C [Example 186, 2,4-difluoro-N-((1S,2R)-2-(6-fluoro-2,3-dimethylphenyl)-1-(5-oxo-4,5-dihydro-1,3,4-oxadiazol-2-yl)propyl)-3-(2-hydroxypropan-2-yl)benzenesulfonamide] | 640 nM |
| Cc1ccc(F)c([C@@H](C)[C@H](NS(=O)(=O)c2ccc(Cl)c(C(=O)N3CCCC3)n2)c2n[nH]c(=O)o2)c1C [Example 114, 5-chloro-N-((1S,2R) 2-(6-fluoro-2,3-dimethylphenyl)-1-(5-oxo-4,5-dihydro-1,3,4-oxadiazol-2-yl)propyl)-6-(pyrrolidine-1-carbonyl)pyridine-2-sulfonamide] | 370 nM |
| CC(=O)OC1(C)CCOc2c(S(=O)(=O)N[C@H](c3n[nH]c(=O)o3)[C@H](C)c3c(F)ccc(C)c3C)ccc(Cl)c21 (stereo partly drawn) [Example 95, 5-chloro-8-(N-((1S,2R)-2-(6-fluoro-2,3-dimethylphenyl)-1-(5-oxo-4,5-dihydro-1,3,4-oxadiazol-2-yl)propyl)sulfamoyl)-4-methylchroman-4-yl acetate] | 140 nM |
| [2H]C([2H])([2H])[C@H](c1c(F)ccc(C)c1C)[C@H](NS(=O)(=O)c1ccc(Cl)cc1C(N)=O)c1n[nH]c(=O)o1 [Example 43, 5-chloro-2-[[(1S,2R)-3,3,3-trideuterio-2-(6-fluoro-2,3-dimethylphenyl)-1-(2-oxo-3H-1,3,4-oxadiazol-5-yl)propyl]sulfamoyl]benzamide] | 280 nM |
| [2H]C([2H])([2H])C1(OC(C)=O)CCOc2c(S(=O)(=O)N[C@H](c3n[nH]c(=O)o3)[C@H](C)c3c(F)ccc(C)c3C)ccc(Cl)c21 (stereo partly drawn) [Example 129, 5-Chloro-8-(N-((1S,2R)-2-(6-fluoro-2,3-dimethylphenyl)-1-(5-oxo-4,5-dihydro-1,3,4-oxadiazol-2-yl)propyl)sulfamoyl)-4-methyl-d3-chroman-4-yl Acetate] | 80 nM |
| Cc1cc(F)c(F)c([C@@H](C)[C@H](NS(=O)(=O)c2ccc(Cl)cc2C(N)=O)c2n[nH]c(=O)o2)c1C [Example 13, 5-chloro-2-(N-((1S,2R)-2-(2,3-difluoro-5,6-dimethylphenyl)-1-(5-oxo-4,5-dihydro-1,3,4-oxadiazol-2-yl)propyl)sulfamoyl)benzamide] | 310 nM |
| Cc1ccc(F)c([C@@H](C)[C@H](NS(=O)(=O)c2ccc(Cl)c(C(=O)N3C4CCC3COC4)n2)c2n[nH]c(=O)o2)c1C [Example 116, 6-(3-oxa-8-azabicyclo[3.2.1]octane-8-carbonyl)-5-chloro-N-((1S,2R)-2-(6-fluoro-2,3-dimethylphenyl)-1-(5-oxo-4,5-dihydro-1,3,4-oxadiazol-2-yl)propyl)pyridine-2-sulfonamide] | 320 nM |
| Cc1ccc(F)c([C@@H](C)[C@H](NS(=O)(=O)c2ccc(Cl)c3c2OCCN3CC(F)F)c2n[nH]c(=O)o2)c1C [Example 102, 5-chloro-4-(2,2-difluoroethyl)-N-((1S,2R)-2-(6-fluoro-2,3-dimethylphenyl)-1-(5-oxo-4,5-dihydro-1,3,4-oxadiazol-2-yl)propy1)-3,4-dihydro-2H-benzo[b][1,4]oxazine-8-sulfonamide] | 660 nM |
| Cc1ccc(F)c([C@@H](C)[C@H](NS(=O)(=O)c2ccc(C(F)(F)F)cc2C(N)=O)c2n[nH]c(=O)o2)c1C [Example 41, 2-(N-((1S,2R)-2-(6-fluoro-2,3-dimethylphenyl)-1-(5-oxo-4,5 dihydro-1,3,4-oxadiazol-2-yl)propyl)sulfamoyl)-5-(trifluoromethyl)benzamide] | 400 nM |

same assay, conditions: read-out: Cell growth suppression IC50

| Structure (SMILES) | IC50 |
| --- | --- |
| [2H]C([2H])([2H])C1(O)CCOc2c(S(=O)(=O)N[C@H](c3n[nH]c(=O)o3)[C@H](C)c3c(F)ccc(Br)c3C)ccc(Cl)c21 (single isomer, unassigned) [Example 226B] | 300 nM |
| Cc1ccc(F)c([C@@H](C)[C@H](NS(=O)(=O)c2ccc(Cl)c3c2OCCC3O)c2n[nH]c(=O)o2)c1C (single isomer, unassigned) [Example 235B] | 400 nM |
| Cc1c(Cl)ccc(F)c1[C@@H](C)[C@H](NS(=O)(=O)c1ccc(Cl)c2c1OCCC2(C)O)c1n[nH]c(=O)o1 (single isomer, unassigned) [Example 209B] | 820 nM |
| Cc1c(Br)ccc(F)c1[C@@H](C)[C@H](NS(=O)(=O)c1ccc(Cl)c2c1OCCC2O)c1n[nH]c(=O)o1 (single isomer, unassigned) [Example 243A] | 290 nM |
